In general, MIC refers to the least concentration at which growth counts as inhibited. A higher MIC goes with weaker potency.

Converted amounts (≈) assume the structure as drawn.

What all share (experiment): MIC, standard broth micro-dilution assay
Assay type in all cases: cell-based
For orientation: Dilution methods test growth across graded concentrations, often in twofold steps.

One experiment deals with Entercoccus faecalis 276. As for the experimental part: (§1) The formula I compounds have in vitro and in vivo activity against Gram-positive pathogenic bacteria. The MIC's were determined using a standard broth micro-dilution assay.
Experiment [1] concerns Entercoccus faecalis 2041. The procedure: as §1
Experiment [2] relates to Entercoccus gallinarum 245. As for the experimental part:
as §1

For `CNC(CC(C)C)C(=O)NC1C(=O)NC(CC(N)=O)C(=O)NC2C(=O)NC3C(=O)NC(C(=O)NC(C(=O)O)c4cc(O)cc(O)c4-c4cc3ccc4O)C(OC3CC(C)(N)C(O)C(C)O3)c3ccc(c(Cl)c3)Oc3cc2cc(c3OC2OC(CO)C(O)C(O)C2OC2CC(C)(NCc3cc4ccccc4s3)C(O)C(C)O2)Oc2ccc(cc2Cl)C1O` (stereo not drawn) [Compound 19, 2-benzthienylmethyl], the MIC (in the experiment on Entercoccus faecalis 276; in experiment [1]; in experiment [2]) was at most 0.06 µg/mL in each case.
For `CCCOC(c1ccccc1)c1ccc(CNC2(C)CC(OC3C(Oc4c5cc6cc4Oc4ccc(cc4Cl)C(OC4CC(C)(N)C(O)C(C)O4)C4NC(=O)C(NC(=O)C6NC(=O)C(CC(N)=O)NC(=O)C(NC(=O)C(CC(C)C)NC)C(O)c6ccc(c(Cl)c6)O5)c5ccc(O)c(c5)-c5c(O)cc(O)cc5C(C(=O)O)NC4=O)OC(CO)C(O)C3O)OC(C)C2O)cc1` (stereo not drawn) [Compound 128, 4-[alpha-propoxybenzyl]benzyl], the figures for the MIC (in the experiment with Entercoccus faecalis 276; in experiment [1]; in experiment [2]) were 1 µg/mL (≈ 0.546 µM), 0.5 µg/mL (≈ 0.273 µM) and 2 µg/mL (≈ 1.09 µM), respectively.
As to `CNC(CC(C)C)C(=O)NC1C(=O)NC(CC(N)=O)C(=O)NC2C(=O)NC3C(=O)NC(C(=O)NC(C(=O)O)c4cc(O)cc(O)c4-c4cc3ccc4O)C(OC3CC(C)(N)C(O)C(C)O3)c3ccc(c(Cl)c3)Oc3cc2cc(c3OC2OC(CO)C(O)C(O)C2OC2CC(C)(NCCc3cccc(Oc4ccccc4)c3)C(O)C(C)O2)Oc2ccc(cc2Cl)C1O` (stereo not drawn) [Compound 62, 3-phenoxyphenethyl], the MIC against Entercoccus faecalis 276 is 0.5 µg/mL (≈ 0.28 µM); in experiment [1], at most 0.06 µg/mL; in experiment [2] it was 4 µg/mL (≈ 2.24 µM).
Consider `CNC(CC(C)C)C(=O)NC1C(=O)NC(CC(N)=O)C(=O)NC2C(=O)NC3C(=O)NC(C(=O)NC(C(=O)O)c4cc(O)cc(O)c4-c4cc3ccc4O)C(OC3CC(C)(N)C(O)C(C)O3)c3ccc(c(Cl)c3)Oc3cc2cc(c3OC2OC(CO)C(O)C(O)C2OC2CC(C)(NCc3cccc4ccccc34)C(O)C(C)O2)Oc2ccc(cc2Cl)C1O` (stereo not drawn) [Compound 3, 1-naphthylmethyl], for which the MIC (in the experiment with Entercoccus faecalis 276; in experiment [1]; in experiment [2]) was at most 0.06 µg/mL in each case.
As to `CCOC(c1ccccc1)c1ccc(CNC2(C)CC(OC3C(Oc4c5cc6cc4Oc4ccc(cc4Cl)C(OC4CC(C)(N)C(O)C(C)O4)C4NC(=O)C(NC(=O)C6NC(=O)C(CC(N)=O)NC(=O)C(NC(=O)C(CC(C)C)NC)C(O)c6ccc(c(Cl)c6)O5)c5ccc(O)c(c5)-c5c(O)cc(O)cc5C(C(=O)O)NC4=O)OC(CO)C(O)C3O)OC(C)C2O)cc1` (stereo not drawn) [Compound 126], the values for the MIC (against Entercoccus faecalis 276; in experiment [1]; in experiment [2]) were 1 µg/mL (≈ 0.55 µM), at most 0.06 µg/mL and 2 µg/mL (≈ 1.1 µM), respectively.
With `CNC(CC(C)C)C(=O)NC1C(=O)NC(CC(N)=O)C(=O)NC2C(=O)NC3C(=O)NC(C(=O)NC(C(=O)O)c4cc(O)cc(O)c4-c4cc3ccc4O)C(OC3CC(C)(N)C(O)C(C)O3)c3ccc(c(Cl)c3)Oc3cc2cc(c3OC2OC(CO)C(O)C(O)C2OC2CC(C)(NCc3ccc(Oc4ccccc4[N+](=O)[O-])cc3)C(O)C(C)O2)Oc2ccc(cc2Cl)C1O` (stereo not drawn) [Compound 70, 4-[2-nitrophenoxy]benzyl], the MIC against Entercoccus faecalis 276 was at most 0.06 µg/mL; in experiment [1], at most 0.06 µg/mL; in experiment [2], 2 µg/mL (≈ 1.1 µM).
For `CNC(CC(C)C)C(=O)NC1C(=O)NC(CC(N)=O)C(=O)NC2C(=O)NC3C(=O)NC(C(=O)NC(C(=O)O)c4cc(O)cc(O)c4-c4cc3ccc4O)C(OC3CC(C)(N)C(O)C(C)O3)c3ccc(c(Cl)c3)Oc3cc2cc(c3OC2OC(CO)C(O)C(O)C2OC2CC(C)(NCC3CCC(c4ccccc4)C3)C(O)C(C)O2)Oc2ccc(cc2Cl)C1O` (stereo not drawn) [Compound 140, 3-phenylcyclopentylmethyl], the results for the MIC (in the experiment on Entercoccus faecalis 276; in experiment [1]; in experiment [2]) were 0.5 µg/mL (≈ 0.286 µM), at most 0.06 µg/mL and 8 µg/mL (≈ 4.57 µM), respectively.
In the same order, the values of `CNC(CC(C)C)C(=O)NC1C(=O)NC(CC(N)=O)C(=O)NC2C(=O)NC3C(=O)NC(C(=O)NC(C(=O)O)c4cc(O)cc(O)c4-c4cc3ccc4O)C(OC3CC(C)(N)C(O)C(C)O3)c3ccc(c(Cl)c3)Oc3cc2cc(c3OC2OC(CO)C(O)C(O)C2OC2CC(C)(NCc3ccc(C#Cc4ccccc4)cc3)C(O)C(C)O2)Oc2ccc(cc2Cl)C1O` (stereo not drawn) [Compound 79, 4-phenylethynylbenzyl] are at most 0.06 µg/mL, at most 0.06 µg/mL and at most 0.06 µg/mL.
In the same order, the values of `CNC(CC(C)C)C(=O)NC1C(=O)NC(CC(N)=O)C(=O)NC2C(=O)NC3C(=O)NC(C(=O)NC(C(=O)O)c4cc(O)cc(O)c4-c4cc3ccc4O)C(OC3CC(C)(N)C(O)C(C)O3)c3ccc(c(Cl)c3)Oc3cc2cc(c3OC2OC(CO)C(O)C(O)C2OC2CC(C)(NCc3cccc(Oc4cccc(C(F)(F)F)c4)c3)C(O)C(C)O2)Oc2ccc(cc2Cl)C1O` (stereo not drawn) [Compound 203] are 0.5 µg/mL (≈ 0.271 µM), 0.25 µg/mL (≈ 0.136 µM) and 2 µg/mL (≈ 1.09 µM).
On to `CNC(CC(C)C)C(=O)NC1C(=O)NC(CC(N)=O)C(=O)NC2C(=O)NC3C(=O)NC(C(=O)NC(C(=O)O)c4cc(O)cc(O)c4-c4cc3ccc4O)C(OC3CC(C)(N)C(O)C(C)O3)c3ccc(c(Cl)c3)Oc3cc2cc(c3OC2OC(CO)C(O)C(O)C2OC2CC(C)(NCC3CCC(Cc4ccccc4)CC3)C(O)C(C)O2)Oc2ccc(cc2Cl)C1O` (stereo not drawn) [Compound 241, 4-[benzyl]cyclohexylmethyl], for which the MIC (with Entercoccus faecalis 276; in experiment [1]; in experiment [2]) was at most 0.06 µg/mL in each case.
On to `CNC(CC(C)C)C(=O)NC1C(=O)NC(CC(N)=O)C(=O)NC2C(=O)NC3C(=O)NC(C(=O)NC(C(=O)O)c4cc(O)cc(O)c4-c4cc3ccc4O)C(OC3CC(C)(N)C(O)C(C)O3)c3ccc(c(Cl)c3)Oc3cc2cc(c3OC2OC(CO)C(O)C(O)C2OC2CC(C)(NCc3ccc(-c4ccccc4[N+](=O)[O-])c([N+](=O)[O-])c3)C(O)C(C)O2)Oc2ccc(cc2Cl)C1O` (stereo not drawn) [Compound 213, 3-nitro-4-[2-nitrophenyl]benzyl], for which the MIC against Entercoccus faecalis 276 was at most 0.06 µg/mL; in experiment [1], at most 0.06 µg/mL; in experiment [2], 2 µg/mL (≈ 1.08 µM).
With `CNC(CC(C)C)C(=O)NC1C(=O)NC(CC(N)=O)C(=O)NC2C(=O)NC3C(=O)NC(C(=O)NC(C(=O)O)c4cc(O)cc(O)c4-c4cc3ccc4O)C(OC3CC(C)(N)C(O)C(C)O3)c3ccc(c(Cl)c3)Oc3cc2cc(c3OC2OC(CO)C(O)C(O)C2OC2CC(C)(NCc3ccc(-c4cccc(C)c4)cc3)C(O)C(C)O2)Oc2ccc(cc2Cl)C1O` (stereo not drawn) [Compound 224, 4-[3-methylphenyl]benzyl], the MIC against Entercoccus faecalis 276 was at most 0.06 µg/mL; in experiment [1], at most 0.06 µg/mL; in experiment [2] it was 0.5 µg/mL (≈ 0.282 µM).
Consider `CNC(CC(C)C)C(=O)NC1C(=O)NC(CC(N)=O)C(=O)NC2C(=O)NC3C(=O)NC(C(=O)NC(C(=O)O)c4cc(O)cc(O)c4-c4cc3ccc4O)C(OC3CC(C)(N)C(O)C(C)O3)c3ccc(c(Cl)c3)Oc3cc2cc(c3OC2OC(CO)C(O)C(O)C2OC2CC(C)(NCc3cccc(OC(C)=O)c3)C(O)C(C)O2)Oc2ccc(cc2Cl)C1O` (stereo not drawn) [Compound 77, 3-acetoxybenzyl], for which the MIC (with Entercoccus faecalis 276; in experiment [1]; in experiment [2]) was 0.25 µg/mL (≈ 0.144 µM) each time.
Take `CCCCCCCCCOc1ccc(CNC2(C)CC(OC3C(Oc4c5cc6cc4Oc4ccc(cc4Cl)C(OC4CC(C)(N)C(O)C(C)O4)C4NC(=O)C(NC(=O)C6NC(=O)C(CC(N)=O)NC(=O)C(NC(=O)C(CC(C)C)NC)C(O)c6ccc(c(Cl)c6)O5)c5ccc(O)c(c5)-c5c(O)cc(O)cc5C(C(=O)O)NC4=O)OC(CO)C(O)C3O)OC(C)C2O)cc1` (stereo not drawn) [Compound 8, 4-nonyloxybenzyl]: the MIC stood at 4 µg/mL (≈ 2.19 µM) in the experiment on Entercoccus faecalis 276, 4 µg/mL (≈ 2.19 µM) in experiment [1] and 8 µg/mL (≈ 4.38 µM) in experiment [2].
Consider `CNC(CC(C)C)C(=O)NC1C(=O)NC(CC(N)=O)C(=O)NC2C(=O)NC3C(=O)NC(C(=O)NC(C(=O)O)c4cc(O)cc(O)c4-c4cc3ccc4O)C(OC3CC(C)(N)C(O)C(C)O3)c3ccc(c(Cl)c3)Oc3cc2cc(c3OC2OC(CO)C(O)C(O)C2OC2CC(C)(NCc3c4ccccc4c(C)c4ccccc34)C(O)C(C)O2)Oc2ccc(cc2Cl)C1O` (stereo not drawn) [Compound 17, 9-[10-methyl]anthranylmethyl], for which the MIC is 0.5 µg/mL (≈ 0.278 µM) in the experiment with Entercoccus faecalis 276, 0.25 µg/mL (≈ 0.139 µM) in experiment [1] and 0.5 µg/mL (≈ 0.278 µM) in experiment [2].
Regarding “4-[3-trifluoromethylphenoxy]-3-nitrobenzyl [Compound 114]”, the figures for the MIC (with Entercoccus faecalis 276; in experiment [1]; in experiment [2]) were 1 µg/mL, 0.25 µg/mL and 2 µg/mL, respectively.
As for `CNC(CC(C)C)C(=O)NC1C(=O)NC(CC(N)=O)C(=O)NC2C(=O)NC3C(=O)NC(C(=O)NC(C(=O)O)c4cc(O)cc(O)c4-c4cc3ccc4O)C(OC3CC(C)(N)C(O)C(C)O3)c3ccc(c(Cl)c3)Oc3cc2cc(c3OC2OC(CO)C(O)C(O)C2OC2CC(C)(NCc3c4ccccc4c(Cl)c4ccccc34)C(O)C(C)O2)Oc2ccc(cc2Cl)C1O` (stereo not drawn) [Compound 18, 9-[10-chloro]anthranylmethyl], the results for the MIC (in the experiment with Entercoccus faecalis 276; in experiment [1]; in experiment [2]) were 1 µg/mL (≈ 0.55 µM), 0.25 µg/mL (≈ 0.138 µM) and 1 µg/mL (≈ 0.55 µM), respectively.
As to `CCCCCC#Cc1ccc(CNC2(C)CC(OC3C(Oc4c5cc6cc4Oc4ccc(cc4Cl)C(OC4CC(C)(N)C(O)C(C)O4)C4NC(=O)C(NC(=O)C6NC(=O)C(CC(N)=O)NC(=O)C(NC(=O)C(CC(C)C)NC)C(O)c6ccc(c(Cl)c6)O5)c5ccc(O)c(c5)-c5c(O)cc(O)cc5C(C(=O)O)NC4=O)OC(CO)C(O)C3O)OC(C)C2O)cc1` (stereo not drawn) [Compound 227, 4-[1-heptynyl]benzyl], the results for the MIC (with Entercoccus faecalis 276; in experiment [1]; in experiment [2]) were 0.5 µg/mL (≈ 0.281 µM), 0.25 µg/mL (≈ 0.141 µM) and 4 µg/mL (≈ 2.25 µM), respectively.
For `CNC(CC(C)C)C(=O)NC1C(=O)NC(CC(N)=O)C(=O)NC2C(=O)NC3C(=O)NC(C(=O)NC(C(=O)O)c4cc(O)cc(O)c4-c4cc3ccc4O)C(OC3CC(C)(N)C(O)C(C)O3)c3ccc(c(Cl)c3)Oc3cc2cc(c3OC2OC(CO)C(O)C(O)C2OC2CC(C)(NCc3cnc4ccccc4c3)C(O)C(C)O2)Oc2ccc(cc2Cl)C1O` (stereo not drawn) [Compound 28, 3-quinolylmethyl], the results for the MIC (in the experiment on Entercoccus faecalis 276; in experiment [1]; in experiment [2]) were at most 0.06 µg/mL, 0.25 µg/mL (≈ 0.144 µM) and 0.25 µg/mL (≈ 0.144 µM), respectively.

The values are drawn from patent US5843889A, “Glycopeptide antibiotic derivatives” (Eli Lilly and Company, priority 1997, dated 1998).
